Measurements taken from patent publication US20050085509A1, “Piperidin-2-one derivative compounds and drugs containing these compounds as the active ingredient” (priority 2001, published 2005).

Experiments:
[1] = biological target: T1, recombinant human p38αMAP kinase (Homo sapiens, UniProt Q16539); assay: p38αMAP kinase inhibitory activity (2): ATF-2 phosphorylation, Alpha Screen; format: biochemical; settings: 30° C., 30 minutes, read-out: IC50, inhibition of ATF-2 phosphorylation by p38αMAP kinase
T1 construct: purchased Upstate Biotechnology Inc. #14-251
Experimental: (2) Study of p38αMAP Kinase Inhibitory Activity (2)
Using activation transcription factor 2 (hereinafter abbreviated as ATF-2) which is a substrate of p38αMAP kinase, the inhibition effect of the compound of the present invention on the ATF-2 phosphorylation by recombinant human p38αMAP kinase was examined.
A kinase buffer (25 mM Tris-HCl (pH 7.5), 5 mM β-glycerophosphate, 2 mM dithiothreitol, 0.1 mM Na3VO4, 10 mM MgCl2) containing recombinant human p38αMAP kinase (Upstate Biotechnology #14-251) (5 μL) was added to a 384-well plate for fluorescence measurement ([…] protein/well). […] Separately, 5 μL of a substrate mixture prepared with the kinase buffer (biotinylated ATF-2 (5 μg/mL) (Upstate Biotechnology, #14-432), adenosine triphosphate (90 μmol/L) (Sigma #FL-AAS) and anti-phosphorylated ATF-2 antibody (20-fold dilution) (Cell Signaling Technology, #9221L) were added and an enzyme reaction was carried out at 30° C. for 30 minutes. After completion of the reaction, the enzyme reaction was terminated by adding 5 μL of Hepes buffer containing 0.25% BSA and 100 mM EDTA. The amount of complex of phosphorylated ATF2 and anti-phosphorylated ATF2 generated by this reaction was measured using Alpha Screen™ Rabbit Detection kit (Packard #6760607). […]

THP-1 = assay: Inhibition activity against TNF-α production using human cell line THP-1; format: cell-based; settings: 1.5 h, THP-1 cells, LPS stimulation, 90 minutes, ELISA, read-out: IC50, inhibition of LPS-induced TNF-α production
Experimental: (4) Inhibition Activity Against TNF-α Production Using Human Cell Line
Using THP-1, which is a human monocyte cell line, the inhibition effect of the compound of the present invention on the TNF-α production induced by lipopolyliposaccharide (LPS) stimulation was studied.
Each 50 μL of lipopolyliposaccharide (LPS; Difco #3120-25-0) prepared at the concentration of 40 ng/mL using RPMI-1640 medium containing 10% fetal calf serum (hereinafter abbreviated as RPMI-1640) and RPMI-1640 containing the compound of the present invention was added to a 96-well plate for tissue culture. […] After completion of the reaction, the culture medium supernatant was recovered and the amount of produced TNF-α was measured using an ELISA kit (Invitrogen, #850090192).
The inhibition activity against TNF-α production, which is the effect of the compound of the present invention, was calculated as an inhibition rate (%) by the following formula. Inhibition rate (%)={(AC−AX)/(AC−AB)}×100 • AB: Measured value without LPS induction • AC: Measured value with LPS induction in the absence of the compound • AX: Measured value with LPS induction in the presence of the compound

[2] = biological target: T1, recombinant human p38αMAP kinase; assay: p38αMAP kinase inhibitory activity (1): ATF-2 phosphorylation, Western blotting; format: biochemical; settings: Western blotting with anti-phosphorylated ATF-2 antibody; FIG. 1
Source text: (1) Study of p38αMAP Kinase Inhibitory Activity (1)
Using activation transcription factor 2 (activating transcription factor 2; ATF-2, Cell Signaling Inc., #9224L) which is a substrate of p38αMAP kinase, the inhibitory effect of the compound of the present invention on the ATF-2 phosphorylation by recombinant human p38αMAP kinase (Upstate Biotechnology Inc., #14-251) was studied by the Western-blotting method using the anti-phosphorylated ATF-2 antibody (Cell Signaling Inc., #9221L). In other words, 10 μL of a solution of the compound of the present invention at a known concentration was added to 10 μL of the kinase buffer (Cell Signaling Inc., #9802) containing recombinant human p38αMAP kinase (100 ng/tube) and pre-incubated for 10 minutes at 30° C. Then, 20 μL of adenosine triphosphate (ATP)/ATF-2 mixture was added and after the incubation of 30 minutes at 30° C., 20 μL of SDS buffer (187.5 mM Tris/6% SDS/30% glycerol/150 mM DTT/0.03% bromophenol blue) was added to stop the enzyme reaction. After heating at 100° C. for 5 minutes, mixing and centrifugation were conducted. After re-mixing, 20 μL of the sample was subjected to an electrophoresis on SDS-PAGE gel (10-20%, Daiichi Pure Chemicals Co., Ltd.). […] After washing with TBS-T solution, phosphorylated ATF-2 was detected using Western blotting detection reagent (Amersham Pharmacia Biotech).

T1 sequence (Q16539 whole entry): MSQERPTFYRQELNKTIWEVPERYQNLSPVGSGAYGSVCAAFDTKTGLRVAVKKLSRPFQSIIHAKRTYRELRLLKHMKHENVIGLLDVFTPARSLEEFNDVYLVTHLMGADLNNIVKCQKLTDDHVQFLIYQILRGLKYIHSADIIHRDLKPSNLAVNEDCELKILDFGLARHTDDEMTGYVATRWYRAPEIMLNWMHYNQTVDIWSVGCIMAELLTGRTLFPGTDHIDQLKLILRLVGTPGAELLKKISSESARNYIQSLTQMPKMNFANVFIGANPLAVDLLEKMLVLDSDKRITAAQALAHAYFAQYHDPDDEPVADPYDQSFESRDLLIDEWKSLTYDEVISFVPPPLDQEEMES

O=C1CCC(Cc2ccc(F)cc2F)CN1c1c(Cl)cccc1Cl (stereo not drawn) [Example 1 (1), 1-(2,6-dichlorophenyl)-5-(2,4-difluorobenzyl)piperidin-2-one]
IC50 [1]: 42.9 nM
IC50 (THP-1): 14.5 nM
concentration at which ATF-2 phosphorylation by p38αMAP kinase was inhibited [2]: ≥ 0.3 µM
